The test system of one data set is HT29 cells. Nature of the data set: Inhibitory effect on HT29 cell proliferation. The format is cell-based. As to conditions: Homo sapiens, HT-29; HT29, 72 h incubation, Cell Counting-Lite 2.0. The method, then: (1) Cell plating: First, tumor cells HT29 were cultured with corresponding culture medium, the cells were digested with trypsin and centrifuged, then the cells were resuspended and counted, and the cells were adjusted to an appropriate concentration for plating.
(§1) Co-incubation of the compounds of the present invention and tumor cells: 90 μL of cell suspension was added to 96-well plates respectively. After cell adherence, 10 μL of bioactive molecules (compounds of the present invention) diluted with culture medium were added into the wells of the above plates, and incubated for 72 h.
(§2) In vitro cell viability detection: After the incubation, 50 μL of Cell Counting-Lite™ 2.0 reagent (Vazyme) was added to each well, shaken and mixed well in the dark, and reacted for 10 minutes before testing. Microplate reader (manufacturer: BMG, Model: PHERA Star-FS) was used for reading. The culture wells without cells were used as the background RLU, and the culture wells with cells but no compound were used as the cell control RLU. Cell inhibition rate=1−(sample RLU−background RLU)/(cell control RLU−background RLU)×100%. The half-inhibition concentration (IC50) of compound was calculated by fitting the curve according to the four-parameter model.

Another data set has as its system HCC1806 cells. Nature of the data set: Inhibitory effect on HCC1806 cell proliferation. The data set is classed as cell-based. As to conditions: Homo sapiens; HCC1806, 72 h incubation, Cell Counting-Lite 2.0. The method, then: (1) Cell plating: First, tumor cells HCC1806 were cultured with corresponding culture medium, the cells were digested with trypsin and centrifuged, then the cells were resuspended and counted, and the cells were adjusted to an appropriate concentration for plating.
as §1, §2

The next data set relates to NCI-H358 cells. In words: Inhibitory effect on NCI-H358 cell proliferation. As to conditions: Homo sapiens; NCI-H358, 72 h incubation, Cell Counting-Lite 2.0. The format is cell-based. Here is the method:
(1) Cell plating: First, tumor cells NCI-H358 were cultured with corresponding culture medium, the cells were digested with trypsin and centrifuged, then the cells were resuspended and counted, and the cells were adjusted to an appropriate concentration for plating.
as §1, §2

The next data set deals with NCI-N87 cells. Nature of the data set: Inhibitory effect on NCI-N87 cell proliferation. The format is cell-based. The following applies: Homo sapiens, NCI-N87, 72 h, read-out: IC50 (nM), inhibitory activity on NCI-N87 cell proliferation. The method, then: (1) Cell plating: First, tumor cells NCI-N87 were cultured with corresponding culture medium, the cells were digested with trypsin and centrifuged, then the cells were resuspended and counted, and the cells were adjusted to an appropriate concentration for plating.
as §1, §2

The subject of a further data set is MDA-MB-231 cells. In words: Inhibitory effect on MDA-MB-231 cell proliferation. The following applies: Homo sapiens; MDA-MB-231, 72 h incubation, Cell Counting-Lite 2.0. The data set is classed as cell-based. The method, then: (1) Cell plating: First, tumor cells MDA-MB-231 were cultured with corresponding culture medium, the cells were digested with trypsin and centrifuged, then the cells were resuspended and counted, and the cells were adjusted to an appropriate concentration for plating.
as §1, §2

The test system of another data set is Jeko-1 cells. In words: Inhibitory effect on Jeko-1 cell proliferation. The data set is classed as cell-based. The following applies: Homo sapiens; Jeko-1, 72 h incubation, Cell Counting-Lite 2.0. Here is the method:
(1) Cell plating: First, tumor cells Jeko-1 were cultured with corresponding culture medium, the cells were resuspended and counted, and finally the cells were adjusted to an appropriate concentration for plating.
as §1, §2

For a further data set, the system named is MDA-MB-453 cells. In words: Inhibitory effect on MDA-MB-453 cell proliferation. The data set is classed as cell-based. As to conditions: Homo sapiens; MDA-MB-453, 72 h incubation, Cell Counting-Lite 2.0. Here is the method: (1) Cell plating: First, tumor cells MDA-MB-453 were cultured with corresponding culture medium, the cells were digested with trypsin and centrifuged, then the cells were resuspended and counted, and the cells were adjusted to an appropriate concentration for plating.
as §1, §2

The nature of data set [1]: Permeability test in MDCK cell model. The data set is classed as in vitro ADME. As to conditions: dog; for efflux ratio at 120 min, 2 μM: pH 7.4, 2.00 μM, Papp(B→A)/Papp(A→B), absence of P-gp inhibitor, read-out: Efflux ratio (ERa). The method, then: (§3) The MDCK cell model was used to evaluate the permeability of the compounds, the LC-MS/MS method was used to determine the concentration of the substance to be tested, and the apparent permeability coefficient (Papp) and efflux ratio were calculated [Efflux ratio=Papp(B→A)/Papp(A→B)].
(§4) Complete culture medium: 10% fetal bovine serum and 1% penicillin/streptomycin were added to MEM culture medium.
(§5) Digestive solution: 0.05% trypsin-EDTA.
(§6) HBSS buffer: HBSS containing Ca^2+, Mg^2+.
(§7) Permeating solution: HBSS containing 10 mM Hepes, 4% BSA, pH 7.4.
(§8) Compound stock solution: a certain amount of the compound to be tested was weighed and formulated with DMSO to prepare a 10 mM stock solution.
(§9) MDCK cells (26th generation) in the logarithmic growth phase were digested and dispersed evenly with 0.05% trypsin-EDTA, and then inoculated into the Transwell chamber at 3*10^5 cells/cm^2, with 200 μL on the A side and 1000 μL on the B side. After inoculation, the medium was changed once every day and the culturing was carried out for 3 to 4 days.
(§10) The cell culture medium was discarded by pipetting, then washing was carried out three times with the permeating solution. 200 μL of permeating solution was added to A side and 1000 μL of permeating solution was added to B side. A voltage resistance meter was used to measure the cell transmembrane resistance (TEER). After the TEER value of the cells was measured, the permeating solution on both sides was discarded by pipetting, and the solution was added. After 120 minutes, 150 μL of samples were taken from A side and B side, respectively, and frozen at −80° C. before testing. Then, 10 μg/ml Fluorescent Yellow was added to A side. After incubation for 30 minutes, 100 μL of solution at B side was pipetted and added into a 96-well white plate. The fluorescence value was measured at the wavelengths of Ex=485 nm and Em=530 nm using a microplate reader, and the permeance was calculated (which was less than 1%).
(§11) 80 μL of the compound to be tested was taken, added to 320 μL of acetonitrile solution containing internal standard (30 ng/mL Tolbutamide), vortexed, and centrifuged for 10 min (4000 rpm, 4° C.), and the supernatant was taken for LC-MS/MS analysis.
(§12) Excel 2013 was used to calculate Papp values and Papp ratio of B side→A side to A side→B side, and the recovery rates of each Control Compound and the compound to be tested were calculated.
(§13) Apparent permeability coefficient (Papp) of compound was calculated according to the following formula:
(§14) C0 was the initial concentration (μM) of the drug to be tested at the donor, (dCr/dt)×Vr was the rate (μM/s) at which the drug to be tested appeared at the receiver, Vr was the solution volume (mL) at the receiver, and A was the surface area (cm^2) of polycarbonate membrane.
(§15) Evaluation criteria: Low permeability: Papp≤0.5 (×10^−6 cm/s) • Medium permeability: 0.5<Papp<2.5 (×10^−6 cm/s) • High permeability: Papp≥2.5 (×10^−6 cm/s)
(§16) Efflux ratio (ER) was calculated according to Papp:
(§17) [formula] • wherein, Papp(B→A) was the apparent permeability coefficient of the drug to be tested from the BL (baso-lateral) end to the AP (apical) end, and Papp (A→B) was the apparent permeability coefficient of the drug to be tested from the AP end to the BL end.
(§18) • Probably being an efflux transporter substrate (Probably): ERa≥2 and ERa/ERi>2 • Likely being an efflux transporter substrate (Likely): ERa≥2 • Unlikely or impossibly being an efflux transporter substrate (Poor or non): ERa<2 • wherein, ERi and ERa were the efflux ratios of the compound to be tested in the presence and absence of P-gp inhibitor, respectively.

The next data set concerns MDCK cells. In words: Permeability test in MDCK cell model. The format is in vitro ADME. The method, then:
as §3, §4, §5, §6, §7, §8, §9, §10, §11, §12, §13, §14, §15, §16, §17, §18

Data set [2] is described as follows: Liver microsome stability test (human). The data set is classed as in vitro ADME. The following applies: human liver microsomes 0.5 mg/ml, 1 μM, 15 min, NADPH. Here is the method:
(§19) Liver microsomes were used as an in vitro model to evaluate the metabolic stability of compounds in human and monkey liver microsomes.
Mixed human liver microsomes: Xenotech, USA
(§20) The positive compound testosterone or the tested substance (liver microsome solution, 50 μL) was mixed with PBS (25 μL). After pre-incubation (37° C.) for 5 min, NADPH (25 μL) was added to make the final concentration of the positive compound or the tested substance 1 μM, the final concentration of human liver microsomal protein was 0.5 mg/ml, the final concentration of monkey liver microsomal protein was 1 mg/ml, the tested substance group and the positive compound group were incubated for 0 min, 15 min. After being reacted for corresponding time, 300 μL of ice-cold acetonitrile containing internal standard was added to terminate the reaction, vortexed, and stored at −80° C. for later analysis. All incubated samples were double samples.
(§21) The tested compound was vortexed for 1 min, and centrifuged for 10 min (4° C., 4000 rpm), and 300 μL of the supernatant was taken for LC-MS/MS analysis.
(§22) Excel software was used to calculate the remaining rate (%) of the drug in primary form in the incubation system: […]
On the technique in general: Microsomes from liver hold many membrane-bound enzymes, among them those of drug oxidation.

A short description of data set [3]: Liver microsome stability test (monkey). As to conditions: monkey liver microsomes 1 mg/ml, 1 μM, 15 min, NADPH. The data set is classed as in vitro ADME, cynomolgus. Here is the method: as §19
Mixed male cynomolgus liver microsomes: RILD, China
as §20, §21, §22

This is an account of results in patent US20260258051A1, “Camptothecin Compound, Preparation Method Therefor and Use Thereof” (SICHUAN KELUN-BIOTECH BIOPHARMACEUTICAL CO., LTD., priority 2022, published 2026).

Where two headings read alike, the source gives them in different places.

As for `CC[C@@]1(O)C(=O)OCc2c1cc1n(c2=O)Cc2c-1nc1cc(F)c(Cl)cc1c2CNC(=O)CO` [Compound 2-1, (S)—N-((9-chloro-4-ethyl-8-fluoro-4-hydroxy-3,14-dioxy-3,4,12,14-tetrahydro-1H-pyrano[3′,4′:6,7]indolizino[1,2-b]quinolin-11-yl)methyl)-2-hydroxyacetamide], the IC50 came out at 14.6 nM with HT29 cells; 8.08 nM in the data set with HCC1806 cells; 121 nM in the data set on NCI-H358 cells; 81.6 nM in the data set with NCI-N87 cells; 38.5 nM with MDA-MB-231 cells; 1.62 nM with Jeko-1 cells. Besides, the IC50 in the data set on MDA-MB-453 cells amounted to 156 nM. The Papp A→B (as a rule, how fast a substance crosses the layer from the apical side) at 120 min, 2 μM in data set [1] (pH 7.4) turned out to be 0.52 ×10⁻⁶ cm/s. The Papp B→A (in general, how fast a substance crosses the layer from the basolateral side) at 120 min, 2 μM in data set [1] (pH 7.4) worked out at 0.42 ×10⁻⁶ cm/s. The efflux ratio at 120 min, 2 μM in data set [1] came out at 0.81. Also, the “Permeability class according to the Papp(A→B) results” value in the data set on MDCK cells is reported as “medium-permeability”. Besides, the “Efflux transporter substrate evaluation from efflux ratio” value with MDCK cells (2.00 μM) was “not efflux transporter substrates or were weak efflux transporter substrates”.

For `CC[C@@]1(O)C(=O)OCc2c1cc1n(c2=O)Cc2c-1nc1cc(F)c(C)c3c1c2[C@@H](NC(N)=O)CC3` [Compound 7-2, 1-((1S,9S)-9-ethyl-5-fluoro-9-hydroxy-4-methyl-10,13-dioxy-2,3,9,10,13,15-hexahydro-1H,12H-benzo[de]pyrano[3′,4′:6,7]indolizino[1,2-b]quinolin-1-yl)urea], the IC50 in the data set on HT29 cells is 22.8 nM; in the data set on HCC1806 cells, 18.6 nM; in the data set on NCI-H358 cells, 287 nM; in the data set on NCI-N87 cells, 80.8 nM; with MDA-MB-231 cells, 30.6 nM; with Jeko-1 cells it was 2.17 nM. This molecule also registered an IC50 in the data set with MDA-MB-453 cells of 203 nM.

Consider `CC[C@@]1(O)C(=O)OCc2c1cc1n(c2=O)Cc2c-1nc1cc(F)c(C)c3c1c2[C@@H](NC(=O)C[C@H](C)O)CC3` [Control Compound 4, reference compound], for which the efflux ratio at 120 min, 2 μM in data set [1] was 21.7. The Papp A→B at 120 min, 2 μM in [1] (pH 7.4, concentration 2.00 μM, 120 minutes, A to B, read-out: Papp A to B) amounted to 0.24 ×10⁻⁶ cm/s. Further, the Papp B→A at 120 min, 2 μM in data set [1] (pH 7.4, concentration 2.00 μM, 120 minutes, B to A, read-out: Papp B to A) is 5.25 ×10⁻⁶ cm/s. Also, in the data set on MDCK cells (2.00 μM), the “Efflux transporter substrate evaluation from efflux ratio” value is recorded as “could be efflux transporter substrates” and the “Permeability class according to the Papp(A→B) results” value is reported as “low-permeability”. For the same molecule, in data set [2], the “Remaining rate (%) Human” value was found to be 64.6%. The “Remaining rate (%) Monkey” value in data set [3] is 65.1%.
